From article PMC5238392, “Origin of anti-tumor activity of the cysteine-containing GO peptides and further optimization of their cytotoxic properties” (Scientific Reports, 2017)
Where two headings read alike, the source gives them in different places. Square brackets hold non-standard residues; d marks the D form. Peptide text beside a SMILES is read from it.

Key:
[1] = test system: human fibrosarcoma cell line HT-1080; type: cell-based; conditions: for Viability of HT-1080 cells (MTS): single 20 μM dose, different incubation times, Fig. 9
[2] = test system: primary culture of human dermal fibroblasts (DF); experiment: MTS cell viability assay, dermal fibroblasts; conditions: for Effect on proliferative activity at low dose (MTS): 5 μM single dose
Protocol: (§1) As a next step, we used MTS assay[27] to examine the effect of GO peptides on the viability of the four described cell cultures as a function of different treatment schemes. […] This treatment regimen is labeled 4 × 5 underneath the graph. Alternatively, we introduced 5 μM of peptide daily while exchanging the medium (denoted 4/5). Unlike the previous protocol, it avoids potential build-up of the peptide in the medium.
(§2) The treatment protocols are: 4 × 5 – four daily doses of 5 μM delivered without exchanging the growth medium; 4/5 – four daily doses of 5 μM delivered with exchanged growth medium; 1 × 5, 1 × 10, 1 × 15, and 1 × 20 – a single dose of 5, 10, 15, or 20 μM, respectively. MTS reagent was added to the wells 96 h after the first (and sometimes the only) application of the peptide and the optical density at 492 nm was measured to determine the fraction of the surviving cells.
(§3) As a next step, we set out to test the cytotoxic effect of these peptides on the normal cells.
(§4) Cell survival was measured using CellTiter 96 AQueous One Solution Cell Proliferation Assay (MTS test, Promega, USA). Cells have been seeded in a 96-well flat-bottom plate in 100 μl of culture medium (10^3 cells/well for A549, HT-1080, dermal fibroblasts and eMSC or 5 × 10^3 cells/well for ZR-75-1) and allowed to attach for 24 h. The starting amount of cells was chosen to account for their growth rate and degree of spreading such as to avoid excessive dilution in the beginning of the experiment or control cell overgrowth toward the end. After 24 h, 10 μl of peptide stock solution or PBS (control) were added to the wells. After 96 h, 20 μl of the MTS-reagent were added to each well and 1–2 h later optical density was measured at the wavelength 492 nm using the 96-well plate reader (Titertek Multiskan, Labsystems, Finland). All experiments were conducted in duplicate or triplicate.

[3] = test system: human endometrial mesenchymal stem cells (eMSC); experiment: MTS cell viability assay, eMSC; conditions: normal cells: eMSC; single dose, 96 h; Fig. 7E,F
Protocol: (§5) The data are according to the MTS assay, where the optical density was measured 96 h after the application of the peptide.
(§6) As a next step, we set out to test the cytotoxic effect of these peptides on the normal cells. In addition to the primary culture of dermal fibroblasts, which has been discussed above, we have also used human endometrial mesenchymal stem cells (eMSC).
as §4

[4] = test system: human breast carcinoma cell line ZR-75-1; experiment: MTS cell viability assay, ZR-75-1; conditions: single dose
Protocol: as §1, §2, §5, §4

[5] = target: T1, reduced and denatured hen egg white lysozyme (Gallus gallus, UniProt P00698); experiment: Lysozyme oxidative refolding assay (disulfide oxidoreductase activity); type: biochemical; conditions: 1 mM peptide, pH 8.5, room temperature
T1 construct: Hen egg white lysozyme (Amresco, USA) was reduced/denatured and lyophilized; purchased Amresco, USA; host or cells: hen egg white
From the text: We have also conducted in vitro experiments to directly probe disulfide oxidoreductase properties of GO-202 peptide. For this purpose we have used the well-established lysozyme refolding assay. In brief, GO-202 is applied to the sample of reduced and denatured hen lysozyme. The protein then undergoes oxidative refolding, assisted by GO-202 which plays the role of disulfide oxidase (isomerase). After a certain interval of time (Tox) this process is quenched by adding an aliquot of acid and the sample is loaded on the reverse phase column.
Figure 10 Oxidative refolding of hen egg lysozyme as monitored by reverse-phase HPLC. […] Top panel (red traces) illustrate protein renaturation in the presence of GO-202; bottom panel (blue traces) represent control measurements with no peptide. The reaction time Tox ranging from 0 to 75 mins is listed on the left side of the individual chromatograms.
Hen egg white lysozyme (Amresco, USA) was reduced/denatured and lyophilized according to the protocol by van den Berg et al.[54]. It was then dissolved in buffer B1 (8 M urea, 100 mM Tris-HCl, 100 mM NaCl, 1 mM EDTA, pH 8.5) to obtain solution with 100 μM lysozyme concentration. Refolding was initiated by rapid dilution of 50 μL of this solution in 150 μL of buffer B2 (100 mM Tris-HCl, 100 mM NaCl, 1 mM EDTA, pH 8.5) containing the appropriate amount of redox agent (none for control experiment, 1.0 mM/0.2 mM GSH/GSSG for calibration experiment, 1 mM of GO-202 for disulfide oxidoreductase activity assay). The reactions were carried out at room temperature and quenched by addition of 10 μL of 2.5 M HCl to produce a pH of ca. 2. Buffers B1 and B2 were degassed prior to use by applying vacuum while stirred on magnetic stirrer for 30 min.
Reverse-phase chromatography data were obtained using Shimadzu Nexera HPLC with detection at 280 nm wavelength. The column used was Phenomenex Luna C-18 (5 μm particle size, 100 Å pore size, 150 mm length, 4.6 mm diameter); sample injection volume was 20 μL. HPLC solvent A was H2O/0.2% (v/v) trifluroacetic acid (TFA), solvent B was 90% CH3CN/10% H2O/0.2% TFA. Lysozyme was eluted using 30 min linear gradient from 35% to 45% of solvent B with a flow rate of 1 mL/min. Chromatograms from calibration GSH/GSSG experiments were in agreement with the previously reported data[54][63].

[6] = cited from earlier work
From the text: Some interesting examples of peptides with presumed DO mechanism can also be found in the literature. […] The efficiency of this peptide was critically dependent on the two contiguous cysteines: mutating these residues to alanines or serines completely abrogated its activity, whereas other alterations such as sequence reversal preserved the activity.

lysozyme = conditions: oxidative refolding of lysozyme in vitro; cited from earlier work
From the text: One instructive example of the redox-active peptides in Table 1 is the peptide labeled DIL (disulfide-isomerase-like). Originally, Woycechowsky and Raines have investigated the CGC peptide, where they measured the redox potential of −167 mV[40]. […] Recently, a longer peptide, RKCGCFF, has been introduced by Liu et al.[41]. The two basic residues, RK, have been added to the sequence with the intent to lower the thiol pKa values, while the two hydrophobic residues, FF, have been included to improve binding of the pept ...

[7] = test system: human breast carcinoma and prostate cancer cells; conditions: cited from earlier work
[8] = test system: human endometrial mesenchymal stem cells (eMSC)
Protocol: as §5, §6, §4

[9] = test system: human fibrosarcoma cell line HT-1080; type: cell-based
From the text: To evaluate the activity of DIL, CopYL and seven other peptides described in Table 1, we have conducted the dose-response measurements on the sensitive (HT-1080) and insensitive (ZR-75-1) cancer cell lines. The results are shown in Fig. 7A–D. For fibrosarcoma cells HT-1080, the best results are obtained using the peptide DOL with presumed disulfide oxidase properties. […] This is a much better performance than shown by GO-202 where the survival rate under identical conditions is 16%.
All experiments were conducted in duplicate or triplicate.

[10] = test system: human breast carcinoma cell line ZR-75-1
Protocol: as §1, §2, §5, §4

[11] = test system: primary culture of human dermal fibroblasts (DF)
Protocol: as §1, §2, §3, §4

T1 sequence (P00698 19-147): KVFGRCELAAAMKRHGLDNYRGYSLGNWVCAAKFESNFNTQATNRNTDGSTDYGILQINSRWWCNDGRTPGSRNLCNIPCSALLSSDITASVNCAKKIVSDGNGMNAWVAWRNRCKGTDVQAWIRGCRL

Compound: N=C(N)NCCC[C@@H](N)C(=O)N[C@H](CCCNC(=N)N)C(=O)N[C@H](CCCNC(=N)N)C(=O)N[C@H](CCCNC(=N)N)C(=O)N[C@H](CCCNC(=N)N)C(=O)N[C@H](CCCNC(=N)N)C(=O)N[C@H](CCCNC(=N)N)C(=O)N[C@H](CCCNC(=N)N)C(=O)N[C@H](CCCNC(=N)N)C(=O)N[C@@H](CS)C(=O)N[C@@H](CCC(N)=O)C(=O)N[C@@H](CS)C(=O)N[C@@H](CCCNC(=N)N)C(=O)N[C@@H](CCCNC(=N)N)C(=O)N[C@@H](CCCCN)C(=O)N[C@@H](CC(N)=O)C(=O)O [GO-202] (H-[dR][dR][dR][dR][dR][dR][dR][dR][dR]CQCRRKN-OH; N-terminus and C-terminus assumed)
- Cell viability (MTS) ([1]; HT-1080, 4 × 5: four daily doses of 5 μM without exchanging growth medium, OD 492 nm 96 h after first application, duplicate or triplicate): significant impact
- Viability of HT-1080 cells (MTS) [1]: cell death occurs soon after the GO-202 treatment
- Effect on proliferative activity at low dose (MTS) ([2]; dermal fibroblasts, 96 h): small increases in proliferative activity
- Cell viability (MTS) ([2]; dermal fibroblasts, 4 × 5: four daily doses of 5 μM without exchanging growth medium, OD 492 nm 96 h after first application): significant impact
- Cytotoxic activity compared with GO-202 (dose-response, MTS) ([2]; normal cells: dermal fibroblasts, single dose, 96 h, Fig. 7E,F): highly sensitive
- Cytotoxic activity compared with GO-202 (dose-response, MTS) [3]: highly sensitive
- Cytotoxic activity compared with GO-202 (dose-response, MTS) ([4]; OD measured 96 h after application, Fig. 7C,D): modestly active
- Disulfide oxidoreductase activity in oxidative refolding of lysozyme ([5]; 25 μM-scale lysozyme diluted from 100 μM stock, RP-HPLC 280 nm): moderately effective disulfide oxidoreductase
- Reaction time Tox after which a significant fraction of lysozyme is fully oxidized natively folded ([5]; RP-HPLC): 15 min
- Reaction time Tox after which native form of lysozyme is dominant ([5]; RP-HPLC): 75 min
- Reaction time Tox after which no distinct peak from reduced lysozyme is observed ([5]; RP-HPLC, control without peptide: partially oxidized after ca. 75 mins): ≤ 1 min

Compound: GKAKCCK
- antimicrobial activity [6]: pronounced antimicrobial activity

Compound: RKCGCFF [peptide of Liu et al., mimic of disulfide isomerase]
- Efficiency as a mimic of disulfide isomerase (lysozyme): increased efficiency

Compound: [R]9AQARRKNYGQLDIFP [CP-1]
- Cytotoxic properties [7]: no appreciable cytotoxic properties

Compound: [R]9CCCRRKN
- Cytotoxic activity compared with GO-202 (dose-response, MTS) [8]: strongest effect
- Cytotoxic activity compared with GO-202 (dose-response, MTS) [9]: outperform the standard GO-202, although only by a small margin
- Effect on proliferative activity at low dose (MTS) ([2]; dermal fibroblasts, 96 h): small increases in proliferative activity
- Cytotoxic activity compared with GO-202 (dose-response, MTS) [10]: significantly outperform GO-202
- Cytotoxic activity compared with GO-202 (dose-response, MTS) [11]: outperform GO-202

Compound: [R]9CQSRRKN
- Viability of HT-1080 cells (MTS) [1]: inactive

Compound: [R]9FFCPHCYQ [DOL]
- Cytotoxic activity compared with GO-202 (dose-response, MTS) [8]: outperform GO-202
- Cytotoxic activity compared with GO-202 (dose-response, MTS) [9]: best results
- survival rate (MTS assay) ([9]; HT-1080, 96 h incubation with 20 μM peptide, single dose): essentially fully eliminated
- Cytotoxic activity compared with GO-202 (dose-response, MTS) [10]: best result
- Effectiveness in killing cancer cells relative to GO-202 ([4]; 20 μM, MTS 96 h): three times more effective
- Cytotoxic activity compared with GO-202 (dose-response, MTS) [11]: strongest effect

Compound: [R]9GCGPCG [DRL]
- Cytotoxic activity compared with GO-202 (dose-response, MTS) [9]: inactive
- Cytotoxic activity compared with GO-202 (dose-response, MTS) [10]: inactive

Compound: [R]9KCGCFF [DIL]
- Cytotoxic activity compared with GO-202 (dose-response, MTS) [8]: less cytotoxic than GO-202
- Cytotoxic activity compared with GO-202 (dose-response, MTS) [9]: second best result
- Effect on proliferative activity at low dose (MTS) ([2]; dermal fibroblasts, 96 h): small increases in proliferative activity
- Cytotoxic activity compared with GO-202 (dose-response, MTS) [10]: significantly outperform GO-202
- Cytotoxic activity compared with GO-202 (dose-response, MTS) [11]: less cytotoxic than GO-202

Compound: [R]9SQCRRKN
- Viability of HT-1080 cells (MTS) [1]: inactive

Compound: [R]9SQSRRKN [control: GO-202 with S-for-C substitution]
- Viability of HT-1080 cells (MTS) [1]: ineffective
- Cytotoxic activity compared with GO-202 (dose-response, MTS) [9]: inefficient compared to GO-202
